Experimental data: patent publication US11351151B2, “Compound having anticancer activity and preparation method and application” (3D Medicines (Beijing) Co., Ltd., priority 2016, dated 2022)

Columns and labels:
[1] = Plasma incubation stability study; assay type: in vitro ADME, SD rat; conditions: rat plasma incubation up to 8 h
Method: The purpose of this example was to investigate the stability of the precursor Linifanib-C12-AA5 (compound 8) and the intermediate Linifanib-C12-Asp (compound 12) in plasma, liver homogenate and spleen homogenate (precursor Linifanib-C12-AA5 metabolizes into the intermediates Linifanib-C12-Asp and Linifanib; the intermediate Linifanib-C12-Asp is further metabolized to form Linifanib), and the metabolites were analyzed quantitatively, and the stability of the incubation system was verified with positive drugs, providing references for compound drug evaluation.
• Instrument: AP13000 LC/MS, ABI • Materials: Male SD rats (200-250 g), Beijing Vital River • Test samples: positive drugs and their metabolites M1 and M2, Linifanib-C12-AA5 and its metabolites Linifanib-C12-ASP and Linifanib. 2. Stability study of Linifanib-C12-AA5 and Linifanib-C12-Asp • 2.1 Linifanib-C12-AA5 and Linifanib-C12-Asp plasma incubation stability study protocol Test animal • Type: SD rat; Quantity: 2 • Sex: male; weight: 200-250 g;
Experimental Procedure • 1. Animal blood was collected, blood samples were placed in EDTA anticoagulation tubes, centrifuged at 3000 g for 15 min at 4° C., plasma was separated, and 2 blood samples were mixed in equal volumes; • 2. Weighed and dissolved a certain amount of Linifanib-C12-AA5/Linifanib-C12-Asp in DMSO:MeOH (2:8), prepared 200 μM mother liquor by purity, and added the compound to the plasma to a final concentration of 2 μg/mL. The organic ratio in the system was not more than 0.5%. • 3. Incubated in a 37° C. water bath and set the sampling points to 0, 0.5, 1, 2, 4, 6, and 8 h. At each sampling point, 100 μL of each sample was added to 300 μL of acetonitrile (with internal standard) for precipitation, centrifuged at 12,000 rpm for 5 min, and 200 μL of supernatant was taken for analysis by LC-MS/MS. • 4. Configured the standard curve to quantify Linifanib, Linifanib-C12-Asp and residual Linifanib-C12-AA5. • 2.2 Linifanib-C12-AA5 and Linifanib-C12-Asp liver/spleen homogenate incubation stability study protocol Test animal • Type: SD rat; Quantity: 2 • Sex: Male; Weight: 200-250 g

NCl-H1703 = assay: Cell proliferation assay (Alamar Blue); assay type: cell-based; conditions: for IC50: 144 h, NCl-H1703 (lung cancer cells), 6 days
Method in brief: (§1)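 6 d continuous exposure, 37 °C/5% CO2; 9 conc., 3.16× steps from 30 or 100 μM; n=2/conc. Readout resazurin fluor. 560/590 nm, 1–4 h dye. % inhib. normalised to 0%/100% inhibition controls → IC50 (4-param).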

NCl-H716 = assay: Cell proliferation assay (Alamar Blue); assay type: cell-based; conditions: 144 h; NCl-H716 tumor cell line; 6 days
Method in brief: as §1

HEPG2 = assay: Cell proliferation assay (Alamar Blue); assay type: cell-based; conditions: Homo sapiens, 144 h; HEPG2 liver cancer cell line; 6 days
Method in brief: as §1

SNU354 = assay: Cell proliferation assay (Alamar Blue); assay type: cell-based; conditions: Homo sapiens, SNU-354, 144 h; SNU354 liver cancer cell line; 6 days
Method in brief: as §1

SK-HEP-1 = assay: Cell proliferation assay (Alamar Blue); assay type: cell-based; conditions: Homo sapiens, SK-HEP1, 144 h; SK-HEP-1 liver cancer cell line; 6 days
Method in brief: as §1

HUH7 = assay: Cell proliferation assay (Alamar Blue); assay type: cell-based; conditions: Homo sapiens, Huh-7, 144 h; HUH7 liver cancer cell line; 6 days
Method in brief: as §1

HUH6 = assay: Cell proliferation assay (Alamar Blue); assay type: cell-based; conditions: Homo sapiens, HuH-6, 144 h; HUH6 liver cancer cell line; 6 days
Method in brief: as §1

NCl-H2170 = assay: Cell proliferation assay (Alamar Blue); assay type: cell-based; conditions: 144 h; NCl-H2170 tumor cell line; 6 days
Method in brief: as §1

[2] = tested on: 26 liver cancer cell lines; assay: Cell proliferation assay (Alamar Blue), summary over liver cancer lines; assay type: cell-based
Method: (§2) 1. Instruments and Materials • Thermo 311 CO2 incubator; Haier biosafety cabinet; Molecular Devices microplate reader; Xiangyi brand L530 desktop low speed centrifuge; Olympus IX51 inverted fluorescence microscope, DMEM, RPMI 1640, MEM, DMEM/F12 1:1 medium, Fetal bovine serum, 0.25% trypsin solution, phosphate buffer (Thermo Fisher Shanghai Co., Ltd.); sigma dimethyl sulfoxide (DMSO), resazurin; 54 commercial tumor cell lines (including 26 liver cancer cell lines). Experimental drugs: compounds 1-12 and active drug Linifanib; chemotherapeutic drug Doxorubicin (HY-15142; Shanghai Qianyuan Biomedical Technology Co., Ltd.).
2. […] The proportion and quantity of passage were determined by experimental needs. The ratio of subculture of this cell line was generally 1:2^˜1:3. • 2.2 inhibition effect on the proliferation of different tumor cell lines • Cell test: 54 cell lines in logarithmic growth phase were inoculated in 96-well culture plates at 500^˜1×10^4/well (the optimal seeding density of each cell line was determined in pre-experiment), After incubating at 37° C. for 4 h in a 5% CO2 humidification incubator, added 10 μL of compounds 1-12 or Linifanib to each well, and tested 9 drug concentration gradients for each compound (diluted from the highest concentration of the test by 3.16 times). […]

[3] = tested on: 54 commercial tumor cell lines; assay: Cell proliferation assay (Alamar Blue), summary over the panel; assay type: cell-based; conditions: in almost all tumor cell lines
Method: as §2
2. Experimental Methods • 2.1 Cultivation of different cell lines • 54 cell lines were cultured in a culture medium containing fetal bovine serum and placed in a 5% CO 2 incubator at 37° C. for incubation. The cells were all grown in an adherent state, and the growth was observed under an inverted microscope, and subculture was performed when the cell confluence rate reached 80%-90%. The proportion and quantity of passage were determined by experimental needs. The ratio of subculture of this cell line was generally 1:2^˜1:3. • 2.2 inhibition effect on the proliferation of different tumor cell lines • Cell test: 54 cell lines in logarithmic growth phase were inoculated in 96-well culture plates at 500^˜1×10^4/well (the optimal seeding density of each cell line was determined in pre-experiment), After incubating at 37° C. for 4 h in a 5% CO2 humidification incubator, added 10 μL of compounds 1-12 or Linifanib to each well, and tested 9 drug concentration gradients for each compound (diluted from the highest concentration of the test by 3.16 times). The solubility of each compound was different at a starting concentration of 30 or 100 μM, respectively. The QC reference compound Doxorubicin was added simultaneously to each cell line test, and the final drug concentrations were 10, 3.16, 1, 0.31, 0.1, 0.03, 0.01, 0.003, and 0.001 μM, respectively. In addition, a positive control group (100% inhibition) and a negative control group (0% inhibition) were set at the same time. The drug group was repeated for 2 wells per concentration, and the positive control group and the negative control group were repeated for 6 wells. After the culture was continued for 6 days in the incubator, AlamarBlue test operation was followed; • AlamarBlue test procedure: Incubated with 10 μL of AlamarBlue reagent per well for 1-4 h, shook for 1-2 min, MD microplate reader EX: 560 nm, EM: 590 nm wavelength to measure fluorescence, recorded the results, calculated the cell inhibition rate of the compound of the invention. […]

Row | IC50 (NCl-H1703) | IC50 (NCl-H716) | IC50 (HEPG2) | IC50 (SNU354) | IC50 (SK-HEP-1) | IC50 (HUH7) | IC50 (HUH6) | IC50 (NCl-H2170) | IC50 values compared with Linifanib [3] | IC50 ([2]; nearly half of the liver cancer cell lines (12/26, 46%), moderately sensitive) | SMILES | production of the intermediates Linifanib-C12-Asp and Linifanib in plasma [1] | stability in plasma [1] | difference of IC50 value versus Linifanib (NCl-H1703; NCI-H1703 (lung cancer cells)) | difference of IC50 values versus Linifanib ([2]; most of the liver cancer cell lines (15/26, 58%))
1 | 21 nM | 1.93 µM | 370 nM | 4.57 µM | 2.75 µM | 2890 nM | 0.15 µM | 1.24 µM | close to those of Linifanib | – | Cc1ccc(F)c(NC(=O)Nc2ccc(-c3cccc4c3c(N)nn4C(=O)C[C@H](N)C(=O)O)cc2)c1 [Compound 10] | – | – | – | –
2 | 20 nM | 4.1 µM | 830 nM | 4.58 µM | 7.11 µM | 1670 nM | > 30 µM | 4 µM | – | < 5 µM | Cc1ccc(F)c(NC(=O)Nc2ccc(-c3cccc4[nH]nc(N)c34)cc2)c1 [Linifanib, reference compound] | – | – | – | –

Row | SMILES | IC50 (NCl-H1703) | IC50 (NCl-H716) | IC50 (HEPG2) | IC50 (SNU354) | IC50 (SK-HEP-1) | IC50 (HUH7) | IC50 (HUH6) | IC50 (NCl-H2170) | IC50 values compared with Linifanib [3] | IC50 ([2]; nearly half of the liver cancer cell lines (12/26, 46%), moderately sensitive) | production of the intermediates Linifanib-C12-Asp and Linifanib in plasma [1] | stability in plasma [1] | difference of IC50 value versus Linifanib (NCl-H1703; NCI-H1703 (lung cancer cells)) | difference of IC50 values versus Linifanib ([2]; most of the liver cancer cell lines (15/26, 58%))
3 | Cc1ccc(F)c(NC(=O)Nc2ccc(-c3cccc4c3c(N)nn4C(=O)CCCCCCCCCCCNC(=O)C[C@H](N)C(=O)N[C@@H](CCC(=O)N[C@@H](CCC(=O)N[C@@H](CCC(=O)N[C@@H](CCC(=O)O)C(=O)O)C(=O)O)C(=O)O)C(=O)O)cc2)c1 [Compound 8] | 80 nM | 26.9 µM | 21400 nM | 40.6 µM | > 100 µM | 23600 nM | 28.2 µM | 51.9 µM | – | – | did not produce | stable in plasma | 4 times | more than 8 times
